Test systems include NCI-H226 lung; M14 melanoma; HL-60(TB) leukemia; OVCAR-8 ovarian; NCI-H522 lung; IGROV1 ovarian; RXF 393 renal; SK-OV-3 ovarian; SK-MEL-5 melanoma; KM12 colon; UO-31 renal; SNB-75 CNS; CAKI-1 renal; COLO 205 colon; HOP-92 NSCLC; OVCAR-5 ovarian.
Test in all cases: growth of human tumour cells (NCI), 48 h

Among the data in PubChem BioAssay (NCI) are TGI values, retold here.

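Step 1: Grow cells in 96-well plates. Step 2: Expose to compound for 48 hours at 5 concentrations. Step 3: Interpolate endpoints linearly; if unreached, use highest concentration. The concentration for full growth arrest is given as TGI.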

As for `CCOP12(OCC)NC(=O)OC1(C(F)(F)F)c1ccccc1O2` (centres undefined), the TGI in the assay with NCI-H226 lung, in the assay on M14 melanoma, with HL-60(TB) leukemia, in the assay with OVCAR-8 ovarian, in the assay on NCI-H522 lung and in the assay on IGROV1 ovarian was above 100 µM each time. Further, the TGI with RXF 393 renal, in the assay on SK-OV-3 ovarian, with SK-MEL-5 melanoma, in the assay with KM12 colon, in the assay on UO-31 renal and with SNB-75 CNS was above 100 µM throughout.

Turning to `O=C(c1ccccc1)C(c1ccccc1)C1(O)C(=O)Nc2ccc([N+](=O)[O-])cc21` (centres undefined), the TGI in the assay on NCI-H226 lung, in the assay with M14 melanoma, in the assay with HL-60(TB) leukemia, in the assay with OVCAR-8 ovarian, in the assay with NCI-H522 lung and in the assay with IGROV1 ovarian was above 100 µM throughout. Besides, the TGI was above 100 µM in the assay with CAKI-1 renal; above 100 µM in the assay on RXF 393 renal; above 100 µM with COLO 205 colon; 79.7 µM in the assay on SK-OV-3 ovarian; 57.7 µM with SK-MEL-5 melanoma; above 100 µM in the assay with UO-31 renal. The TGI with SNB-75 CNS, in the assay with HOP-92 NSCLC and in the assay on OVCAR-5 ovarian was above 100 µM throughout.

As for `Cc1ccc(C(c2c(O)c3ccccc3n(-c3ccccc3)c2=O)c2c(O)c3ccccc3n(-c3ccccc3)c2=O)cc1`, the TGI in the assay on NCI-H226 lung, in the assay with NCI-H522 lung, in the assay on CAKI-1 renal, with RXF 393 renal, in the assay on COLO 205 colon and in the assay on SK-MEL-5 melanoma was above 100 µM throughout. In addition, the TGI in the assay with KM12 colon, in the assay with UO-31 renal, in the assay with HOP-92 NSCLC and in the assay on OVCAR-5 ovarian was above 100 µM throughout.

In the case of `COc1ccc(Cc2c(=O)[nH]nc3ccccc23)cc1`, the TGI in the assay with NCI-H226 lung, in the assay on M14 melanoma, with OVCAR-8 ovarian, with IGROV1 ovarian, in the assay with CAKI-1 renal and with COLO 205 colon was above 100 µM throughout. Further, the TGI with SK-OV-3 ovarian, with SK-MEL-5 melanoma, in the assay on KM12 colon, with UO-31 renal, in the assay on SNB-75 CNS and with HOP-92 NSCLC was above 100 µM throughout. Also, the TGI in the assay on OVCAR-5 ovarian is above 100 µM.

As to `O=C(O)COc1ccc(C(=O)/C(SS/C(C(=O)c2ccc(OCC(=O)O)c(Cl)c2Cl)=C2\C=C(c3ccc(Cl)cc3)SS2)=C2/C=C(c3ccc(Cl)cc3)SS2)c(Cl)c1Cl`, the TGI was 18.7 µM in the assay on NCI-H226 lung; 26.3 µM in the assay with M14 melanoma; 2.1 µM in the assay with HL-60(TB) leukemia; above 100 µM in the assay with OVCAR-8 ovarian; 9.54 µM in the assay on NCI-H522 lung; 76.2 µM with IGROV1 ovarian. The TGI with CAKI-1 renal was above 100 µM; with COLO 205 colon, 1.27 µM; in the assay with SK-OV-3 ovarian it was above 100 µM; with SK-MEL-5 melanoma, 48.1 µM; in the assay with KM12 colon, 54.6 µM; in the assay on UO-31 renal, 16.9 µM. Besides, the TGI is 31 µM in the assay on SNB-75 CNS, 17.9 µM in the assay on HOP-92 NSCLC and above 100 µM in the assay on OVCAR-5 ovarian.

As to `Cc1nc(N2N=C(c3ccc(Cl)cc3)CCC2=O)sc1[N+](=O)[O-]`, the TGI with NCI-H226 lung, in the assay with M14 melanoma, in the assay with HL-60(TB) leukemia, in the assay on OVCAR-8 ovarian, with NCI-H522 lung and in the assay with IGROV1 ovarian was above 100 µM throughout. Moreover, the TGI with CAKI-1 renal, in the assay with RXF 393 renal, with COLO 205 colon, in the assay with SK-OV-3 ovarian, in the assay with SK-MEL-5 melanoma and in the assay with KM12 colon was above 100 µM each time. The TGI in the assay on UO-31 renal and with SNB-75 CNS was above 100 µM in each case.

For `Clc1ccc(CCn2cncn2)cc1`, the TGI with NCI-H226 lung, in the assay with M14 melanoma, in the assay with HL-60(TB) leukemia, with OVCAR-8 ovarian, in the assay on NCI-H522 lung and in the assay on IGROV1 ovarian was above 100 µM each time. The TGI with CAKI-1 renal, in the assay with RXF 393 renal, in the assay on COLO 205 colon, with SK-OV-3 ovarian, with SK-MEL-5 melanoma and with KM12 colon was above 100 µM throughout. Also, the TGI in the assay with UO-31 renal, with SNB-75 CNS, with HOP-92 NSCLC and with OVCAR-5 ovarian was above 100 µM each time.

Regarding `C/C(CC(=O)Nc1cc(C)ccc1C)=N/N=C(N)N`, the TGI in the assay on NCI-H226 lung, with M14 melanoma, in the assay on HL-60(TB) leukemia, with OVCAR-8 ovarian, in the assay with NCI-H522 lung and with IGROV1 ovarian was above 100 µM throughout. The TGI in the assay with RXF 393 renal, in the assay with COLO 205 colon, in the assay on SK-OV-3 ovarian, with SK-MEL-5 melanoma, in the assay with KM12 colon and in the assay on UO-31 renal was above 100 µM throughout. In addition, the TGI in the assay on SNB-75 CNS, with HOP-92 NSCLC and in the assay with OVCAR-5 ovarian was above 100 µM throughout.

With `CCOC(=O)C(C(=O)OCC)c1ccc([N+](=O)[O-])o1`, the TGI was 45.7 µM in the assay with NCI-H226 lung; 26.6 µM in the assay on M14 melanoma; above 22.3 µM in the assay on HL-60(TB) leukemia; 16.1 µM with OVCAR-8 ovarian; 3.26 µM in the assay on NCI-H522 lung; 42.1 µM with IGROV1 ovarian. Also, the TGI is 16.1 µM with CAKI-1 renal; 24.9 µM in the assay on RXF 393 renal; 10.4 µM in the assay on COLO 205 colon; above 100 µM with SK-OV-3 ovarian; 31.5 µM in the assay on SK-MEL-5 melanoma; 33.9 µM with KM12 colon. The TGI is 29 µM in the assay on UO-31 renal, 37.3 µM with SNB-75 CNS, 15 µM in the assay on HOP-92 NSCLC and 32.1 µM with OVCAR-5 ovarian.

As for `O=C1CC2(CCC3=C(O2)c2ccccc2NC(=O)C3)C(=O)c2ccccc2N1` (centres undefined), the TGI with NCI-H226 lung, with M14 melanoma, in the assay on HL-60(TB) leukemia, in the assay on OVCAR-8 ovarian, with NCI-H522 lung and in the assay with IGROV1 ovarian was above 100 µM each time. For the same compound, the TGI with RXF 393 renal, with COLO 205 colon, in the assay on SK-MEL-5 melanoma, in the assay with KM12 colon, with UO-31 renal and in the assay on SNB-75 CNS was above 100 µM throughout. Moreover, the TGI with OVCAR-5 ovarian was above 100 µM.
